According to patent publication US10888090B2, “Plant growth promoters and methods of using them” (KING ABDULLAH UNIVERSITY OF SCIENCE AND TECHNOLOGY, priority 2015, dated 2021):

Assays:
[1] = test system: Arabidopsis (col-0) seedlings; assay: Hypocotyl-derived adventitious root formation in Arabidopsis seedlings; type: in vivo, Arabidopsis thaliana; conditions: 2.5 μM; arising after dark-light transition
Excerpt: FIG. 12A: 3-OH-β-apo-13-Carotenone treatment increases the number of hypocotyl-derived adventitious roots in a concentration-dependent manner (14 days old plants). For a better resolution, see FIG. 12B. FIG. 12B: 3-OH-β-apo-13-Carotenone treatment increases the number of hypocotyl-derived adventitious roots. (A) 4-day-old Arabidopsis (col-0) seedlings were transferred to 3-OH-β-apo-13-Carotenone containing plates at the indicated concentrations and grown for 10 days. Red arrows indicate adventitious roots on hypocotyl (B) Average number of adventitious roots. Seeds were germinated on 1 MS medium with 0.5% sucrose (pH 5.7) and grown for 4 days in the dark. Error bars represent means±S.E. Asterisks indicate significant differences as calculated using a standard Student's t-test (*P<0.005, ** <0.001). […] Therefore, we tested whether β-apo-13-carotenone can also induce adventitious root formation in the model plant Arabidopsis thaliana. As shown in FIGS. 12A and 12B, the compound exerted a clear induction on the number of hypocotyl-derived adventitious roots that usually arise spontaneously after dark-light transition. Highest activity—around 50% increase, was obtained with 2.5 μM concentrations (FIGS. 12A and 12B).

Arabidopsis = assay: Number of lateral roots in Arabidopsis (14 days old plants); type: in vivo
Protocol: FIG. 14: 3-OH-β-apo-13-Carotenone treatment of Arabidopsis increases the number of lateral roots in a concentration-dependent manner (14 days old plants). 0-5 μM corresponds to different concentrations of synthetic 3-OH-β-apo-13-Carotenone. Puri corresponds to synthetic 3-OH-β-apo-13-Carotenone after HPLC purification. […] Therefore, we tested whether β-apo-13-carotenone can also induce adventitious root formation in the model plant Arabidopsis thaliana. As shown in FIGS. 12A and 12B, the compound exerted a clear induction on the number of hypocotyl-derived adventitious roots that usually arise spontaneously after dark-light transition. Highest activity—around 50% increase, was obtained with 2.5 μM concentrations (FIGS. 12A and 12B). […] To ensure that the biological activity observed is caused by 3-OH-β-apo-13-carotenone and not by a possible contamination with a different compound that may be included during the organic synthesis, HPLC was used to isolate highly pure 3-OH-β-apo-13-carotenone, and the purified compound was applied.

[2] = test system: Leaf explants of 12-day-old seedlings; assay: Leaf-derived adventitious roots (leaf explants of 12-day-old seedlings); type: in vivo, Arabidopsis thaliana
Excerpt: FIG. 13: 3-OH-β-apo-13-Carotenone treatment increases the number of leaf-derived adventitious roots (Leaf explants of 12-day-old seedlings). […] Therefore, we tested whether β-apo-13-carotenone can also induce adventitious root formation in the model plant Arabidopsis thaliana. As shown in FIGS. 12A and 12B, the compound exerted a clear induction on the number of hypocotyl-derived adventitious roots that usually arise spontaneously after dark-light transition. Highest activity—around 50% increase, was obtained with 2.5 μM concentrations (FIGS. 12A and 12B).

Arabidopsis (Col-0) [3] = assay: Lateral root density in Arabidopsis, single and combined treatment with auxin; type: in vivo; conditions: 3-OH-β-apo-13-carotenone 2.5 μM, auxin 100 nM; 9 days
Protocol: FIG. 15: Combined 3-OH-β-apo-13-Carotenone and auxin treatment of Arabidopsis has a synergetic effect on lateral root density. 3-OH-β-apo-13-carotenone and auxin (indole-3-acetic acid) were applied at 2.5 μM and 100 nM, concentrations, respectively. Arabidopsis (Col-0) seeds were germinated in/MS-plates (with 0.5% sucrose) containing individual and both compounds together and grown in 16 light/8 dark period, 22° C. for 9 days. Graph represents both actual density and in percentage. *P<0.05; Student's t test; **P<0.05; Student's t test. Also investigated was possible effect of combining 3-OH-β-apo-13-carotenone with auxin.

Arabidopsis (Col-0) [4] = assay: Primary root length in Arabidopsis; type: in vivo; conditions: 2.5 μM, 9 days
Protocol: FIG. 16: 3-OH-β-apo-13-Carotenone treatment of Arabidopsis increases the length of primary root. Arabidopsis (Col-0) seeds were germinated on/MS-plates (with 0.5% sucrose) containing 3-OH-β-apo-13-carotenone and grown in 16 light/8 dark period, 22° C. for 9 days. *P<0.05; Student's t-test; **P<0.05; Student's t test. 3-OH-β-apo-13-carotenone was applied at 2.5 μM concentration. Also investigated was the effect of the compound on primary root length.

Greenhouse experiments = type: in vivo
[5] = test system: rice seedlings (cultivar 'Dongjin'); assay: Rice seedlings grown hydroponically with the compound: crown roots and biomass; type: in vivo; conditions: hydroponic
Protocol: FIG. 10: 3-OH-β-apo-13-Carotenone treatment increases the number of crown roots in rice. Seeds of cultivar ‘Dongjin’ were pre-germinated in water for 2 days followed by transfer to filter papers placed in petri dishes containing half-strength liquid Murashige and Skoog (MS) medium. The cultures were incubated at 24° C. for one week. Thereafter, the seedlings were grown hydroponically in half-strength modified Hoagland nutrient solution containing different concentrations of 3-OH-β-apo-13-carotenone for 2 weeks in the greenhouse. The medium was changed twice a week, data were recorded 2 weeks after treatment. (FIG. 10A) Number of crown roots of rice seedlings 2 weeks after treatment. Each value represents the mean of 10 seedlings. Error bar indicates standard error. Asterisks denote a significant difference from the mock treatment by student t-test (* P<0.05; ** P<0.01). FIG. 11: Root and shoot biomass of rice seedlings treated with 3-OH-β-apo-13-Carotenone. One week-old seedlings of cultivar ‘Dongjin’ were grown hydroponically in half-strength modified Hoagland nutrient solution containing different concentrations of 3-OH-β-apo-13-Carotenone for two weeks in the greenhouse. The medium was changed twice a week. After two weeks, roots and shoots were collected separately and dried in an incubator at 80° C. for 3 days. Dried samples were weighed using a Mettler Toledo balance. […]

root hairs = conditions: at high concentration; cited from earlier work

## CC(=O)/C=C/C=C(C)/C=C/C1=C(C)CC(O)CC1(C)C (stereo not drawn) [3-OH-β-apo-13-carotenone]
[1]
  increase in number of hypocotyl-derived adventitious roots (highest activity): around 50%
Arabidopsis; 2.5 μM, synthetic compound
  number of lateral roots: clearly increased the number of lateral roots
Arabidopsis; compound after HPLC purification
  lateral root number: increase in lateral root number was detected similar to that observed before
[2]
  number of leaf-derived adventitious roots: noticeable increase (duplication)
Arabidopsis (Col-0) [3]
  increase in lateral root density, single treatment: around 20%
Arabidopsis (Col-0) [4]
  primary root length: small but significant increase
Greenhouse experiments
  growth and flowering in greenhouse experiments: growth-promoting effects and early flowering
[5]; micromolar concentrations, 2 weeks after treatment
  number of crown roots: obvious increase in the number of crown roots
[5]; two weeks, dried samples
  increase in root and shoot biomass: around 30%

## O=C(O)Cc1c[nH]c2ccccc12 [auxin, indole-3-acetic acid, reference compound]
Arabidopsis (Col-0) [3]
  increase in lateral root density, single treatment: ~30%

## CC(=O)/C=C/C=C(C)/C=C/C1=C(C)CCCC1(C)C [d'orenone, β-apo-13-carotenone]
Root hairs
  tip growth of root hairs: block tip growth of root hairs
